In a melting point compilation (Tetko et al.; mined from patent text by program, amines drawn as free bases though some values may be those of a salt) one finds melting point data, which are given here for 93 compounds.

SMILES strings stand for the structures. Where only a bound is given, the exact number is not on record here.

In the case of `O=C(CC=C(Cl)Cl)Oc1ccc(F)cc1`, the melting point (usually the temperature, or range, at which the solid turns liquid) lay within 47 to 50 °C. In turn, `O=Cc1cncc(Br)c1` displayed a melting point of 95 °C. For the compound `Cc1c[nH]c2c(Sc3nc4cc(Cl)ccc4[nH]3)ccc(N)c12`, the melting point is 229 to 230 °C. For the compound `CC(=O)Nc1ccccc1C#Cc1c(F)c(F)nc(F)c1F`, the melting point lay in the range of 204 to 205 °C.

For the compound `O=[N+]([O-])c1ccc(C(=NO)c2ccc([N+](=O)[O-])cc2)cc1`, the melting point turned out to be 194 °C. With `O=C1c2cccc3cccc(c23)C(=O)N1CCCCN1CCC(O)(c2ccccc2)CC1`, the melting point was 138 to 139 °C. To `CCCC(C)(CCl)c1cc(Cl)nnc1Cl` (stereo not drawn) belongs 68 to 69 °C; to `Cc1c(C=Cc2ccccc2)cccc1[N+](=O)[O-]`, 75.9 °C; to `O=c1c(-c2cccc(C(F)(F)F)c2)coc2c(O)c(O)ccc12`, 225 °C. For `COC(=O)C1=C(C)NC(C)=C(C(=O)OC)C1c1ccccc1-c1ccsc1`, the melting point fell in the range of 164 to 166 °C. To `Clc1c2ccccc2nc2c1cnn2C1CCCC1` belongs 97 to 98 °C. Under `O=[N+]([O-])c1ccc(OCC(O)CCCl)cc1` (stereo not drawn) stands 60 to 63 °C; under `O=C(Cn1c(-c2cccnc2)ncc(NC(=O)OCc2ccccc2)c1=O)NC(Cc1ccccc1)C(=O)C(F)(F)F` (stereo not drawn), 88 to 91 °C. `COC(=O)C[C@H](O)CC(=O)CCc1c(-c2ccc(F)cc2)c(-c2ccccc2)c(C(=O)Nc2ccccc2)n1C(C)C` displayed a melting point of 75 to 77 °C. For `O=C1c2ccccc2OCN1CCO`, the melting point was in the range of 59 to 61 °C. `CN1C2CCC1CC(NC(=O)OC(C)(C)C)C2` (stereo not drawn): the melting point lay within 79 to 81 °C. Consider `Clc1cc2c(nn1)CCCCC2`, for which the melting point lay in the range of 74 to 75 °C. Turning to `COC(=O)C(Oc1ccc(Cl)c2c1CCCC2)c1ccc(Oc2ccc(Cl)cc2)cc1` (stereo not drawn), the melting point fell in the range of 87.5 to 90 °C. As for `Cc1ccc2c(c1)C1CN(Cc3ccccc3)CCC1N2` (stereo not drawn), the melting point lay within 179 to 182 °C. Take `NNc1ncc(-c2cccc(C(F)(F)F)c2)nn1`: the melting point lay within 229 to 232 °C. Turning to `COc1ccc(C(=O)c2ccc(SCc3ccccc3)s2)cc1`, the melting point was 103 to 105 °C. For `CC(C)C1(CCc2ccccc2CO)CC(O)=C(Sc2sc3ccccc3c2C(C)(C)C)C(=O)O1` (stereo not drawn), the melting point was 92 to 94 °C. In the case of `COc1cc(C=CC(=O)Nc2ccccc2C(=O)O)ccc1O`, the melting point turned out to be 208 °C.

`O=Cc1cccn1-c1ncccc1[N+](=O)[O-]` displayed a melting point of 122 to 125 °C. For `Nc1nc2cc(Cl)c(Cl)cc2nc1Br`, the melting point was in the range of 232 to 234 °C. To `O=[N+]([O-])c1ccc(C#CBr)cc1` belongs 170 °C; to `COCCc1ccc(OCC(O)C(C)(C)N)cc1` (stereo not drawn), 120 to 122 °C; to `O=C(c1cccs1)N1CCCC1`, 66 to 68 °C.

The compound `CC/C=C/CNC(=O)[C@H]1N(C(=O)[C@@H](O)[C@H](Cc2ccccc2)NC(=O)c2cccc(O)c2C)CSC1(C)C` gave a melting point of 113 to 115 °C. In the case of `COC(=O)C1(C)CC(C(=O)Nc2ccc(I)cc2)=NN1c1ccc(F)cc1` (stereo not drawn), the melting point fell in the range of 84 to 85 °C. The compound `COc1ccc(Nc2ccc3c(n2)CC(C)(C)CC3=O)cc1` registered a melting point of 149 to 150 °C. On to `Nc1ncccc1OCc1c(F)ccc(F)c1F`, for which the melting point is 108 to 110 °C. On to `CN1C[C@@H](C(=O)OC(C)(C)C)NC1=O`, for which the melting point was 135 to 136 °C. In turn, `c1ccc2c(c1)nc(NC1CCCC1)c1nncn12` displayed a melting point of 257 to 260 °C.

In the case of `Cc1cc(Nc2cccc(O)c2)c2c(cnn2C)n1`, the melting point was 264 to 265 °C. To `CCCCCCCCCCCCCCCCCC(=O)OC(CO)CO` belongs 73 to 75 °C. In turn, `OCCCCOCCCCOCCCCOCCCCO` came in with a melting point of 22 °C. To `CCC1(c2ccc3cc(OC)ccc3c2)OC(C(=O)OC)C(C(=O)OC)O1` (stereo not drawn) belongs 72 to 73 °C; to `Nc1c(OCCCBr)cccc1[N+](=O)[O-]`, 88 to 89 °C; to `CC(C)C(=O)N[C@@H](CSC(=O)c1ccccc1)C(=O)NCCSC(=O)c1ccccc1`, 154 to 156 °C.

As for `COc1cc(SC)c(C)cc1OCCBr`, the melting point was in the range of 66 to 67 °C. Under `COc1c(C2CCN(CCCCNC(=O)c3ccc(-c4ccc(C#N)cc4)nc3)CC2)ccc2c1CCCC2` stands 166 to 168 °C; under `CCCCCCC(=N)NC(=S)Nc1ccc(F)cc1`, 75 to 76 °C; under `COc1cc(COc2nn(-c3ccccc3)cc2/C=C/S(C)=O)ccc1OCc1nc(-c2ccco2)oc1C` (stereo not drawn), 156 to 157 °C. Turning to `O=S(=O)(c1ccccc1)n1c2cc(O)c(O)cc2c2cc(O)c(O)cc21`, the melting point was in the range of 240 to 241 °C. Take `OCCC1CC(n2nnc3c(NC4CC4c4ccccc4)nc(Sc4ccc(C(F)(F)F)cc4)nc32)C(O)C1O` (stereo not drawn): the melting point fell in the range of 100 to 102 °C. With `CC1(C)SC(C)(C)N(C(=O)COc2ccc(Cl)cc2)C1C(=O)O` (stereo not drawn), the melting point lay within 146 to 147 °C. Under `COc1ccc(C=CC(=O)Nc2cc(Cl)ccc2C(=O)O)cc1OC` stands 255 to 257 °C. As to `COc1ccc(CCCON2CCC(C(=O)c3nc4ccccc4s3)CC2)cc1`, the melting point lay within 114 to 115 °C. As for `C[C@H]1N(C(=O)c2ccc(OCC(F)(F)C(F)F)cc2)CC(=O)O[C@@]1(Cn1cncn1)c1ccc(F)cc1F` (relative stereo), the melting point was 78 to 83 °C. Take `CCOC(=O)C(=CNc1cccc(OCC)n1)C(=O)OCC`: the melting point lay in the range of 58 to 60 °C. In the case of `O=C1Nc2cccc(-c3cccc4c3oc3ccccc34)c2C12COc1cc3c(cc12)OCO3` (stereo not drawn), the melting point is > 230 °C. For the compound `CN1c2ccccc2C(C#N)c2ccccc21`, the melting point was in the range of 141 to 143 °C.

For the compound `COc1nc(NC(=O)NS(=O)(=O)c2ccccc2Cl)nc2nccnc12`, the melting point amounted to 212 °C. On to `CCCCNC(=O)C(=O)NCCCCCO`, for which the melting point fell in the range of 136 to 137 °C. As for `CN1CC[C@]2(c3cccc(O)c3)CC(=O)CC[C@@H]2C1` (relative stereo), the melting point worked out at 175 °C. `N#CCCCCc1csc(NC(=N)N)n1` displayed a melting point of 104 to 105 °C. On to `CC1(C)[C@@H](C(=O)Nc2cc(C(F)(F)F)n[nH]2)[C@@H]1c1ccccc1` (relative stereo), for which the melting point fell in the range of 68 to 71 °C. Turning to `COCOC1CCC2(C)C(=CCC3C2CCC2(C)C(CO)CCC32)C1` (stereo not drawn), the melting point fell in the range of 102 to 105 °C. In turn, `C=CCOc1cn(C)c2cc(OCC(F)(F)F)ccc2c1=O` showed a melting point of 120 °C. Under `COc1cc(OC)n2nc(N)nc2n1` stands 215 to 220 °C; under `NCC(O)COc1cccc2ccccc12` (stereo not drawn), 106 °C; under `CC(C(=O)O)c1ccc2noc(-c3ccccc3)c2c1` (stereo not drawn), 145 to 149 °C. `COc1ccc(-c2cnc3[nH]cc(C(=O)NC4CCN(C(C)=O)C4)c3n2)cc1OC` (stereo not drawn) registered a melting point of 211 to 212 °C.

`COC(=O)c1cc(Cl)c(C)c(Br)c1` displayed a melting point of 53 to 55 °C. Consider `CN1c2ccccc2CN(C(=O)C(F)(F)F)c2ccccc21`, for which the melting point fell in the range of 104 to 106 °C. Regarding `COC(=O)Nc1nc2cc(S(=O)CC3CCC3)ccc2[nH]1` (stereo not drawn), the melting point was in the range of 198 to 206 °C. To `CC(O)CN(CCc1ccc(Nc2ncc3c(n2)-c2ccccc2C(c2cccc(Br)c2)C3)cc1)Cc1ccccc1` (stereo not drawn) belongs 90 to 92 °C; to `CCOC(=O)c1nc2c(C)nn(CC)c2nc1OCCC(C)C`, 59 to 61 °C; to `CCCC(=O)c1ccc(NC(=S)N2CCN(c3ncnc4cc(OC)c(OC)cc34)CC2)cc1`, 218 to 219 °C.

On to `CC(C)(C)c1onc(NC(=O)C2CC2)c1Cl`, for which the melting point was 130 to 131 °C. Turning to `Cc1nc(-c2ccccc2)c(-c2ccccc2)n1CCCCCCNC(=O)Oc1ccccc1F`, the melting point lay in the range of 129 to 131 °C. `CCOC(=O)C1=NNc2ccc(-c3ccc(Cl)cc3)cc2C1`: the melting point lay within 254 to 256 °C. As to `O=C(Nc1cccc(Oc2cccc(C(=O)O)c2)c1)NC12CC3CC(CC(C3)C1)C2`, the melting point fell in the range of 152 to 154 °C.

Compound `C=CCOc1ccccc1OCC(O)CNC1CCc2ccccc2C1` (stereo not drawn) yielded a melting point of 98 to 100 °C. Take `CN(C)C1CCc2[nH]c3c(C#N)cccc3c2C1` (stereo not drawn): the melting point lay in the range of 177 to 179 °C. The compound `Cn1c(S(=O)(=O)c2ccc(=O)[nH]n2)cc2ccccc21` showed a melting point of 233 to 235 °C. In turn, `Cc1cn(Cc2ccc(F)cc2)cc1C(=O)CC(=O)C(=O)O` yielded a melting point of 162 to 163 °C.

As for `COc1ccc2c(c1)C(=O)N(c1ccc(C(C)C)cn1)C2`, the melting point was in the range of 109 to 110 °C. On to `Clc1ccc(CSC(Cn2ccnc2)C23CC4CC(CC(C4)C2)C3)cc1` (stereo not drawn), for which the melting point lay within 157 to 160 °C. `Cc1nn(C)c(OCC(=O)C(C)(C)C)c1C(=O)c1ccc(Cl)cc1Cl` displayed a melting point of 104 to 105 °C. Turning to `C=CCOc1ccc(C#N)c(OC(C(=O)OC)c2ccccc2C)c1` (racemic), the melting point is 98 to 99 °C. Regarding `COC(=O)c1sc2ccccc2c1O`, the melting point lay in the range of 109 to 110 °C. `CCOc1cccc2oc(-c3ccccc3)cc(=O)c12` gave a melting point of 111 to 113 °C. To `CCCCCc1ccc(C(=O)Oc2ccc(C#N)c(F)c2F)cc1` belongs 33 °C; to `CC(=Nc1cc(C(F)(F)F)cc2nc(C)n(C(C)C)c12)c1ccccc1`, 164 to 166 °C. To `CC(C)(C(=O)NC(Nc1c(Nc2cccnc2)c(=O)c1=O)C(C)(C)Cc1ccccc1)c1ccccc1` (stereo not drawn) belongs 228 to 231 °C; to `CC(C)CC(=O)Nc1cccc(-c2ccnc3c(-c4cccc(Cl)c4)cnn23)c1`, 169 to 171 °C. To `Cc1c(O)cc2c(c1C)CCC2c1c[nH]cn1` (stereo not drawn) belongs 198 to 202 °C. As for `CC(C)(C)OC(=O)N[C@@H](Cc1ccccc1)C(=O)CCl`, the melting point was in the range of 101 to 102 °C. `CC#CC(=O)N[C@H]1CC[C@H](CCN2CCN(c3nccc4c3OCC4)CC2)CC1` displayed a melting point of 176 °C. In turn, `Nc1cccc(-c2ccc(CCN3CCN(c4nccn4-c4ccccc4)CC3)cc2)n1` displayed a melting point of 140 to 142 °C. `CCSc1nc(N)c(C(N)=S)s1`: the melting point fell in the range of 180 to 183 °C.
